Columns and labels:
[1] = target: T1, 5-hydroxytryptamine receptor 1A (Homo sapiens, UniProt P08908); test: Agonist activity at human 5HT1A receptor expressed in CHO cells assessed as inhibition of forskolin-induced adenylate cyclase activity; format: functional, cell-based
T1 sequence (P08908 whole entry): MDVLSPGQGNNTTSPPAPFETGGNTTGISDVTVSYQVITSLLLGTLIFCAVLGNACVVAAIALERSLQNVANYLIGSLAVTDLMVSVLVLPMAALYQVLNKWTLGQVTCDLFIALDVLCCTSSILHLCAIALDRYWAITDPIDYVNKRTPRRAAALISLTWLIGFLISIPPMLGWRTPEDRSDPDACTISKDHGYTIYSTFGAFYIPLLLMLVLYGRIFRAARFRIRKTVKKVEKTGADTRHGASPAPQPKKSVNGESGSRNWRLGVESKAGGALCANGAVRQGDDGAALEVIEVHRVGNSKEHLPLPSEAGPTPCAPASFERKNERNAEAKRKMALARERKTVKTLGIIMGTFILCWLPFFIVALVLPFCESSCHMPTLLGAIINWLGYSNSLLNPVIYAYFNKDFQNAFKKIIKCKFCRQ

[2] = target: T2, 5-hydroxytryptamine receptor 1A (Homo sapiens) (UniProt P08908); test: Agonist activity at human 5HT1A receptor expressed in CHO cells by [35S]GTPgammaS binding assay; format: functional, cell-based
T2 sequence (whole entry): T1 sequence (P08908 whole entry)

[3] = target: T1, 5-hydroxytryptamine receptor 1A; test: Displacement of [3H][…] from human 5HT1A receptor expressed in CHO cells; format: cell-based
[4] = target: Sodium-dependent serotonin transporter (Homo sapiens, UniProt P31645); test: Displacement of labeled paroxetine from 5-HT transporter
Chain of Sodium-dependent serotonin transporter (P31645 whole entry): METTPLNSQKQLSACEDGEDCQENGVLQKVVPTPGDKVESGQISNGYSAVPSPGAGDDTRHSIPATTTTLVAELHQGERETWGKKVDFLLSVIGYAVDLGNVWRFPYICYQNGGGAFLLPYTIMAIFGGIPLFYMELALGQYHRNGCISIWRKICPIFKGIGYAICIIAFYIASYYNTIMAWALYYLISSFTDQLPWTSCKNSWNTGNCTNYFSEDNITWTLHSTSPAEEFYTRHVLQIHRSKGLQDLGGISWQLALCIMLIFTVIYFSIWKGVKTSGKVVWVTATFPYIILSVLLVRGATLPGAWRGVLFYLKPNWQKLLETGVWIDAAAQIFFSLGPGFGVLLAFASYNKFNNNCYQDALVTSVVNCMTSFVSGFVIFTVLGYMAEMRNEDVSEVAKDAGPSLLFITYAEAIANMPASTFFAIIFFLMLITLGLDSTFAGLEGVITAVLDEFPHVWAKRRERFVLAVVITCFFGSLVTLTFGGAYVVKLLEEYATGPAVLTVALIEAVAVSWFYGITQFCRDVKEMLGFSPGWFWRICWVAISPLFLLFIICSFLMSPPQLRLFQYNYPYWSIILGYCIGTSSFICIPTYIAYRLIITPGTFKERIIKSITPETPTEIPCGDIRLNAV

SMILES	EC50 [1]	Emax [2]	Ki [3]	Ki [4]	IC50 [1]
O=C1NCc2ccc3c(c21)CC(N(CCCCc1c[nH]c2ccc(F)cc12)CC1CC1)CO3 (racemic)	0.049 µM	87%	0.019 µM	0.139 µM	
O=C1NCc2ccc3c(c21)CC(N(CCCc1c[nH]c2ccc(F)cc12)C1CCC1)CO3 (racemic)	0.35 µM		0.101 µM	0.063 µM	
CN(CCCc1c[nH]c2ccc(F)cc12)C1COc2ccc3c(c2C1)C(=O)NC3 (racemic)	0.075 µM	80%	0.022 µM	0.009 µM	
CCN(CCCc1c[nH]c2ccc(F)cc12)C1COc2ccc3c(c2C1)C(=O)NC3 (racemic)	0.028 µM	78%	0.002 µM	0.008 µM	
O=C1NCCc2cc(F)c3c(c21)CC(N(CCCc1c[nH]c2ccc(F)cc12)CC1CC1)CO3 (racemic)	0.101 µM	62%	0.05 µM	0.112 µM	
CC(C)N(CCCc1c[nH]c2ccc(F)cc12)C1COc2ccc3c(c2C1)C(=O)NCC3 (racemic)	0.252 µM	94%	0.129 µM	0.008 µM	
CCCN(CCCc1c[nH]c2ccc(F)cc12)C1COc2ccc3c(c2C1)C(=O)NCC3 (racemic)	0.034 µM	100%	0.013 µM	0.061 µM	
O=C1NCc2ccc3c(c21)CC(N(CCCc1c[nH]c2ccc(F)cc12)C(=O)c1ccccc1)CO3 (racemic)	0.436 µM	96%	0.085 µM	0.031 µM	
O=C1NCCc2ccc3c(c21)CC(N(CCCc1c[nH]c2ccc(F)cc12)CC1CC1)CO3 (racemic)	0.036 µM	91%	0.019 µM	0.026 µM	
CC(C)CN(CCCc1c[nH]c2ccc(F)cc12)C1COc2ccc3c(c2C1)C(=O)NC3 (racemic)				0.617 µM	
O=C1NCCc2ccc3c(c21)CC(N(CCCc1c[nH]c2ccc(F)cc12)C1CCC1)CO3 (racemic)	0.054 µM	77%	0.095 µM	0.028 µM	
CCN(CCCc1c[nH]c2ccc(F)cc12)C1COc2ccc3c(c2C1)C(=O)NCC3 (racemic)	0.009 µM	97%	0.006 µM	0.03 µM	
CC(C)CN(CCCc1c[nH]c2ccc(F)cc12)C1COc2ccc3c(c2C1)C(=O)NCC3 (racemic)			0.927 µM	0.184 µM	
O=C1NCc2ccc3c(c21)CC(NCCCc1c[nH]c2ccc(F)cc12)CO3 (racemic)	0.062 µM	100%	0.024 µM	0.008 µM	
CCN(CCCc1c[nH]c2ccc(F)cc12)C1COc2c(F)cc3c(c2C1)C(=O)NCC3 (racemic)	0.01 µM	92%	0.004 µM	0.015 µM	
O=C1NCc2ccc3c(c21)CC(NCCCCc1c[nH]c2ccc(F)cc12)CO3 (racemic)	0.284 µM	96%	0.022 µM	0.02 µM	
O=C1NCCc2cc(F)c3c(c21)CC(NCCCc1c[nH]c2ccc(F)cc12)CO3 (racemic)	0.004 µM	98%	0.006 µM	0.027 µM	
N#Cc1ccc2[nH]cc(CCCCN(CC3CC3)C3COc4ccc5c(c4C3)C(=O)NC5)c2c1 (racemic) [listing 1 of 2 here]			0.004 µM	0.025 µM	0.063 µM

SMILES	EC50 [1]	Emax [2]	Ki [3]	Ki [4]	IC50 [1]
O=C1NCc2ccc3c(c21)CC(N(CCCc1c[nH]c2ccc(F)cc12)CC1CCCCC1)CO3 (racemic)				1.24 µM	
CN(CCCc1c[nH]c2ccc(F)cc12)C1COc2ccc3c(c2C1)C(=O)NCC3 (racemic)	0.026 µM	99%	0.023 µM	0.017 µM	
O=C1NCCc2ccc3c(c21)CC(N(CCCc1c[nH]c2ccc(F)cc12)CCC(F)(F)F)CO3 (racemic)			0.966 µM	0.34 µM	
O=C1NCCc2ccc3c(c21)CC(NCCCc1c[nH]c2ccc(F)cc12)CO3 (racemic)	0.025 µM	87%	0.044 µM	0.01 µM	
N#Cc1ccc2[nH]cc(CCCNC3COc4ccc5c(c4C3)C(=O)NC5)c2c1 (racemic)	0.022 µM	91%	0.036 µM	0.013 µM	
O=C1NCc2ccc3c(c21)CC(N(CCCc1c[nH]c2ccc(F)cc12)CC1CC1)CO3 (racemic) [listing 1 of 2 here]			0.006 µM	0.015 µM	0.223 µM
O=C1NCCc2ccc3c(c21)CC(N(CCCc1c[nH]c2ccc(F)cc12)C(=O)c1ccccc1)CO3 (racemic)			1.22 µM	0.671 µM	
N#Cc1ccc2[nH]cc(CCCCN(CC3CC3)C3COc4ccc5c(c4C3)C(=O)NC5)c2c1 (racemic) [listing 2 of 2 here]		0%			
O=C1NCc2ccc3c(c21)CC(N(CCCc1c[nH]c2ccc(F)cc12)CC1CC1)CO3 (racemic) [listing 2 of 2 here]		0%			
N#Cc1ccc2[nH]cc(CCCCN(CC3CC3)C3COc4ccc5c(c4C3)C(=O)NC5)c2c1 (single isomer, unassigned; (+)) [listing 1 of 2 here]	0.019 µM		0.031 µM	0.012 µM	
N#Cc1ccc2[nH]cc(CCCCN(CC3CC3)C3COc4ccc5c(c4C3)C(=O)NC5)c2c1 (single isomer, unassigned; (+)) [listing 2 of 2 here]		100%			
N#Cc1ccc2[nH]cc(CCCCN(CC3CC3)C3COc4ccc5c(c4C3)C(=O)NC5)c2c1 (single isomer, unassigned; (-)) [listing 1 of 2 here]			0.01 µM	0.017 µM	0.203 µM
O=C1NCc2ccc3c(c21)CC(N(CCCc1c[nH]c2ccc(F)cc12)CC1CC1)CO3 (single isomer, unassigned; (-)) [listing 1 of 2 here]			0.008 µM	0.006 µM	0.32 µM
N#Cc1ccc2[nH]cc(CCCCN(CC3CC3)C3COc4ccc5c(c4C3)C(=O)NC5)c2c1 (single isomer, unassigned; (-)) [listing 2 of 2 here]		0%			
O=C1NCc2ccc3c(c21)CC(N(CCCc1c[nH]c2ccc(F)cc12)CC1CC1)CO3 (single isomer, unassigned; (-)) [listing 2 of 2 here]		0%			
O=C1NCc2ccc3c(c21)CC(N(CCCc1c[nH]c2ccc(F)cc12)CC1CC1)CO3 (stereo in doubt; (+)-46) [listing 1 of 2 here]	0.024 µM		0.003 µM	0.005 µM	
O=C1NCc2ccc3c(c21)CC(N(CCCc1c[nH]c2ccc(F)cc12)CC1CC1)CO3 (stereo in doubt; (+)-46) [listing 2 of 2 here]		84%			

Reference: ChEMBL document CHEMBL1153150, “Synthesis and structure-activity relationship of novel lactam-fused chroman derivatives having dual affinity at the 5-HT(1A) receptor and the serotonin transporter” (Bioorg Med Chem Lett, 2010)
